# Reference: US9505753B2, “Inhibitors of D-amino acid oxidase” (THE JOHNS HOPKINS UNIVERSITY, priority 2012, dated 2016)
# Where two headings read alike, the source gives them in different places.
# Target: human recombinant D-amino acid oxidase (Homo sapiens (Human), UniProt P14920)
# Assay: In vitro D-amino acid oxidase (DAAO) assay, 96-well plate
# Assay type: biochemical
# Details: read-out: Inhibition of DAAO IC50
# Experimental: A reliable 96-well plate D-amino acid oxidase (DAAO) assay was developed based on previously published reports (J. Biol. Chem. 277: 27782 (2002)). […] All reactions were carried out for 20 min at room temperature in a 100-μL volume in Tris buffer (50 mM, pH 8.5). Additionally, stock solutions and serial dilutions of potential DAO inhibitors were made in 10:90 DMSO:buffer with a final assay DMSO concentration of 1%.
# [1] = human recombinant DAAO, D-serine 5 mM, FAD 1 μM, 20 min, room temperature, Tris buffer pH 8.5
# Sequence of human recombinant D-amino acid oxidase (P14920 whole entry): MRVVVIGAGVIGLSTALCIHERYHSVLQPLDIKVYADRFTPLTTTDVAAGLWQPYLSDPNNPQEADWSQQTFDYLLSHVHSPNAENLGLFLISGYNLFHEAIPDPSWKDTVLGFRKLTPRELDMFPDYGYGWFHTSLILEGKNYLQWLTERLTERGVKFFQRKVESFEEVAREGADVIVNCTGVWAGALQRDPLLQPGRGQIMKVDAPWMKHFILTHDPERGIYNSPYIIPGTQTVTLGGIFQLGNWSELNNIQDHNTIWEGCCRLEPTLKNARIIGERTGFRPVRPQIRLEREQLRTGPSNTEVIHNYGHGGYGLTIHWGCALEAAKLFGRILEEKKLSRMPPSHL
SMILES,IC50 [1],IC50
"O=c1[nH]c(=O)n(CCc2ccccc2)nc1O [Compound 5a, 6-Hydroxy-2-phenethyl-1,2,4-triazine-3,5(2H,4H)-dione]",80 nM,
"O=c1[nH]c(=O)n(Cc2ccc3ccccc3c2)nc1O [Compound 5aa, 6-Hydroxy-2-(naphthalen-2-ylmethyl)-1,2,4-triazine-3,5(2H,4H)-dione]",30 nM,
"O=c1[nH]c(=O)n(Cc2ccc3cc(F)ccc3c2)nc1O [Compound 5ab, 2-((6-Fluoronaphthalen-2-yl)methyl)-6-hydroxy-1,2,4-triazine-3,5(2H,4H)-dione]",100 nM,
"O=c1[nH]c(=O)n(CCc2cccc(Oc3ccccc3)c2)nc1O [Compound 5ad, 6-Hydroxy-2-(3-phenoxyphenethyl)-1,2,4-triazine-3,5(2H,4H)-dione]",300 nM,
"O=c1[nH]c(=O)n(Cc2ccc(Oc3ccccc3F)cc2)nc1O [Compound 5ae, 2-(4-(2-Fluorophenoxyl)benzyl)-6-hydroxy-1,2,4-triazine-3,5(2H,4H)-dione]",300 nM,
"O=c1[nH]c(=O)n(Cc2ccc(-c3ccccc3)cc2)nc1O [Compound 5af, 2-(Biphenyl-4-ylmethyl)-6-hydroxy-1,2,4-triazine-3,5(2H,4H)-dione]",300 nM,
"O=c1[nH]c(=O)n(CCc2ccc(F)cc2)nc1O [Compound 5b, 2-(4-Fluorophenethyl)-6-hydroxy-1,2,4-triazine-3,5(2H,4H)-dione]",60 nM,
"O=c1[nH]c(=O)n(CCc2cccc(F)c2)nc1O [Compound 5c, 2-(3-Fluorophenethyl)-6-hydroxy-1,2,4-triazine-3,5(2H,4H)-dione]",60 nM,
"O=c1[nH]c(=O)n(CCc2ccccc2F)nc1O [Compound 5d, 2-(2-Fluorophenethyl)-6-hydroxy-1,2,4-triazine-3,5(2H,4H)-dione]",80 nM,
"O=c1[nH]c(=O)n(CCc2ccc(Cl)cc2)nc1O [Compound 5e, 2-(4-Chlorophenethyl)-6-hydroxy-1,2,4-triazine-3,5(2H,4H)-dione]",30 nM,
"O=c1[nH]c(=O)n(CCc2cccc(Cl)c2)nc1O [Compound 5f, 2-(3-Chlorophenethyl)-6-hydroxy-1,2,4-triazine-3,5(2H,4H)-dione]",60 nM,
"O=c1[nH]c(=O)n(CCc2ccccc2Cl)nc1O [Compound 5g, 2-(2-Chlorophenethyl)-6-hydroxy-1,2,4-triazine-3,5(2H,4H)-dione]",100 nM,
"Cc1ccc(CCn2nc(O)c(=O)[nH]c2=O)cc1 [Compound 5h, 6-Hydroxy-2-(4-methylphenethyl)-1,2,4-triazine-3,5(2H,4H)-dione]",100 nM,
"Cc1cccc(CCn2nc(O)c(=O)[nH]c2=O)c1 [Compound 5i, 6-Hydroxy-2-(3-methylphenethyl)-1,2,4-triazine-3,5(2H,4H)-dione]",60 nM,
"Cc1ccccc1CCn1nc(O)c(=O)[nH]c1=O [Compound 5j, 6-Hydroxy-2-(2-methylphenethyl)-1,2,4-triazine-3,5(2H,4H)-dione]",60 nM,
"O=c1[nH]c(=O)n(CCc2ccc(C(F)(F)F)cc2)nc1O [Compound 5k, 6-Hydroxy-2-(4-(trifluoromethyl)phenethyl)-1,2,4-triazine-3,5(2H,4H)-dione]",80 nM,
"O=c1[nH]c(=O)n(CCc2cccc(C(F)(F)F)c2)nc1O [Compound 5l, 6-Hydroxy-2-(3-(trifluoromethyl)phenethyl)-1,2,4-triazine-3,5(2H,4H)-dione]",90 nM,
"O=c1[nH]c(=O)n(CCc2cccc3ccccc23)nc1O [Compound 5n, 6-Hydroxy-2-(2-(naphthalen-1-yl)ethyl)-1,2,4-triazine-3,5(2H,4H)-dione]",100 nM,
"CC(C)(C)CCn1nc(O)c(=O)[nH]c1=O [Compound 5r, 2-(3,3-Dimethylbutyl)-6-hydroxy-1,2,4-triazine-3,5(2H,4H)-dione]",40000 nM,
"O=c1[nH]c(=O)n(Cc2cccc3ccccc23)nc1O [Compound 5u, 6-Hydroxy-2-(naphthalen-1-ylmethyl)-1,2,4-triazine-3,5(2H,4H)-dione]",50 nM,
"O=c1[nH]c(=O)n(CC(F)(F)c2ccccc2)nc1O [Compound 10a, 2-(2,2-Difluoro-2-phenylethyl)-6-hydroxy-1,2,4-triazine-3,5(2H,4H)-dione]",400 nM,

# Now from value to compound:
IC50 [1],IC50,SMILES
80 nM,,"O=c1[nH]c(=O)n(CCc2ccc(Cl)cc2Cl)nc1O [Compound 5m, 2-(2,4-Dichlorophenethyl)-6-hydroxy-1,2,4-triazine-3,5(2H,4H)-dione]"
30 nM,,"O=c1[nH]c(=O)n(CCc2ccc(-c3ccccc3)cc2)nc1O [Compound 5o, 2-(2-(Biphenyl-4-yl)ethyl)-6-hydroxy-1,2,4-triazine-3,5(2H,4H)-dione]"
3000 nM,,"Cn1nc(O)c(=O)[nH]c1=O [Compound 5p, 6-Hydroxy-2-methyl-1,2,4-triazine-3,5(2H,4H)-dione]"
300 nM,,"CC(C)CCn1nc(O)c(=O)[nH]c1=O [Compound 5q, 6-Hydroxy-2-isopentyl-1,2,4-triazine-3,5(2H,4H)-dione]"
2000 nM,,"O=c1[nH]c(=O)n(CCCc2ccccc2)nc1O [Compound 5s, 6-Hydroxy-2-(3-phenylpropyl)-1,2,4-triazine-3,5(2H,4H)-dione]"
9000 nM,,"O=c1[nH]c(=O)n(Cc2ccccc2)nc1O [Compound 5t, 2-Benzyl-6-hydroxy-1,2,4-triazine-3,5(2H,4H)-dione]"
200 nM,,"COc1ccccc1CCn1nc(O)c(=O)[nH]c1=O [Compound 5v, 6-Hydroxy-2-(2-methoxyphenethyl)-1,2,4-triazine-3,5(2H,4H)-dione]"
60 nM,,"O=c1[nH]c(=O)n(CCc2ccccc2O)nc1O [Compound 5vp, 6-Hydroxy-2-(2-hydroxyphenethyl)-1,2,4-triazine-3,5(2H,4H)-dione]"
100 nM,,"COc1cccc(CCn2nc(O)c(=O)[nH]c2=O)c1 [Compound 5w, 6-Hydroxy-2-(3-methoxyphenethyl)-1,2,4-triazine-3,5(2H,4H)-dione]"
100 nM,,"O=c1[nH]c(=O)n(CCc2cccc(O)c2)nc1O [Compound 5wp, 6-Hydroxy-2-(3-hydroxyphenethyl)-1,2,4-triazine-3,5(2H,4H)-dione]"
,100 nM,"COc1ccc(CCn2nc(O)c(=O)[nH]c2=O)cc1 [Compound 5x, 6-Hydroxy-2-(4-methoxyphenethyl)-1,2,4-triazine-3,5(2H,4H)-dione]"
100 nM,,"O=c1[nH]c(=O)n(CCc2ccc(O)cc2)nc1O [Compound 5xp, 6-Hydroxy-2-(4-hydroxyphenethyl)-1,2,4-triazine-3,5(2H,4H)-dione]"
30 nM,,"O=c1[nH]c(=O)n(CCc2ccc(Cl)c(Cl)c2)nc1O [Compound 5y, 2-(3,4-Dichlorophenethyl)-6-hydroxy-1,2,4-triazine-3,5(2H,4H)-dione]"
60 nM,,"O=c1[nH]c(=O)n(CCc2ccc(F)c(Cl)c2)nc1O [Compound 5z, 2-(3-Chloro-4-fluorophenethyl)-6-hydroxy-1,2,4-triazine-3,5(2H,4H)-dione]"
40 nM,,"O=c1[nH]c(=O)n(CCc2ccc(F)c(F)c2)nc1O [Compound 10b, 2-(3,4-Difluorophenethyl)-6-hydroxy-1,2,4-triazine-3,5(2H,4H)-dione]"
100 nM,,"O=c1[nH]c(=O)n(CCn2cccc2)nc1O [Compound 10c, 2-(2-(1H-pyrrol-1-yl)ethyl)-6-hydroxy-1,2,4-triazine-3,5(2H,4H)-dione]"
